# Measurements taken from patent US20220409620A1, “REDUCING IMMUNOGENICITY TO PEGLOTICASE” (Horizon Pharma Rheumatology LLC, priority 2016, published 2022).
# System: adult patients with uncontrolled gout
# Assay: Serum uric acid (sUA) levels and sUA responder rate, open-label study of pegloticase with MTX (MIRROR OL)
# Assay type: in vivo, human
# Method: The primary objective is to estimate the response rate during Month 6 (Weeks 20, 22, and 24), as measured by the sustained normalization of serum uric acid (SUA) to <6 mg/dL for at least 80% of the time during Month 6 in subjects receiving KXX with MTX.
# The primary efficacy outcome endpoint is the sustained normalization of SUA to <6 mg/dL for at least 80% of the time during month 6 (weeks 20, 22, and 24) in subjects receiving KXX with MTX. […] Participants who achieve this endpoint were classified as “responders.” Serum uric acid (SUA) responders may also be defined as participants achieving and maintaining SUA <6 mg/dL for at least 80% of the time during Month 6 (Weeks 20, 22, and 24).
# Blood samples may be collected prior to each pegloticase infusion for measurement of SUA levels using the Beckman Coulter AU System Uric Acid procedure. Participants were declared “non-responders” if there were SUA measures >6 mg/dL at 2 consecutive study visits beginning with the week 2 visit. […] This assumption and subsequent discontinuation of pegloticase was consistent with the protocol of large phase III randomized controlled trials and the product label. A formal stopping rule was 2 occasions of SUA levels of greater than 6 mg/dL.
# Clinical Chemistry—Blood samples were collected prior to each pegloticase infusion for measurement of SUA levels (primary efficacy parameter) using the Beckman Coulter AU System Uric Acid procedure. In this procedure uric acid is converted to hydrogen peroxide. Hydrogen peroxide reacts with reagent to produce a chromophore which is read bichromatically at 660/800 nm. The amount of dye formed is proportional to the uric acid concentration in the sample.
# Serum samples for measurement of SUA levels were collected at the Screening Visit, the Week −4 Visit (prior to the first dose of MTX), and the Week −2 Visit during the MTX Run-in Period; within 48 hours prior to each pegloticase infusion and after the end of each pegloticase infusion prior to discharge from the site during the Pegloticase+IMM Period; at the non-infusion Week 52/End of Study/Early Termination Visits and at the Post Treatment 3 and 6 Month Follow-up Visits. Additional serum samples for SUA levels were collected at optional non-infusion (Frequent Sampling) Visits at Weeks 1 and 7. […] Subjects with SUA level >6 mg/dL at 2 consecutive visits beginning at Week 2 visit discontinued treatment, completed the End of Pegloticase Infusion Visit procedures within 2 weeks and continued the subject visits according to the protocol (without treatment).
# Efficacy analyses were performed using the modified intention-to-treat (mITT) population, defined as all enrolled subjects who received ≥1 dose of pegloticase. The proportion of Month 6 responders was summarized, along with a 95% confidence interval for the proportion. The proportion of Month 3 and overall (Months 3 and 6 combined) responders was analyzed similarly.
# A subject was declared a non-responder if the subject had SUA level >6 mg/dL at 2 consecutive study visits beginning with the Week 2 Visit. In addition, a subject who withdraws from study treatment for any reason after the first dose of pegloticase in the KXX+MTX Period and prior to Month 6 (for the primary endpoint) or Month 3 (for the secondary endpoint) was considered a non-responder if SUA values were not collected at the planned time points.
# Patients were administered oral MTX (15 mg/week) and folate (1 mg/day) 4 weeks prior to the first pegloticase infusion (Day 1) and throughout the pegloticase treatment period. Blood was drawn prior to each infusion to measure sUA level, monitor clinical parameters, and examine for ADA development. All patients followed typical IR prophylaxis protocols (fexofenadine one day before and the morning of each infusion and acetaminophen and IV corticosteroid the morning of each infusion).
# [1] = Day 1 - Post-Infusion, mITT Population
# [2] = Early Termination Visit, mITT Population
# [3] = End of Pegloticase Infusions Visit, mITT Population
# [4] = Month 6 sUA Non-Responders, Day 1-Post-Infusion, n=3
# [5] = Month 6 sUA Non-Responders, Early Termination Visit, n=3
# [6] = Month 6 sUA Non-Responders, Week 1, n=2
# [7] = Month 6 sUA Non-Responders, Week 2-Post-Infusion, n=3
# [8] = Month 6 sUA Non-Responders, Week 2-Pre-Infusion, n=3
# [9] = Month 6 sUA Non-Responders, Week 4-Pre-Infusion, n=3
# [10] = Month 6 sUA Non-Responders, Week 8-Post-Infusion, n=1
# [11] = Month 6 sUA Non-Responders, Week 8-Pre-Infusion, n=1
# [12] = Month 6 sUA Non-Responders, Week 10-Pre-Infusion, n=1
# [13] = Month 6 sUA Responders, Day 1-Post-Infusion, n=8
substance,measurement,setting,value
pegloticase,"Serum Uric Acid, Change from Baseline, Mean (SD)",[1],−7.29 (2.254) mg/dL
same,"Serum Uric Acid, Change from Baseline, Median",[1],-7.30 mg/dL
same,"Serum Uric Acid, Observed, Mean (SD)",[1],1.18 (1.417) mg/dL
same,"Serum Uric Acid, Observed, Median",[1],0.30 mg/dL
same,"sUA <6 mg/dL, n (%)",[1],11 (100%)
same,"Serum Uric Acid, Change from Baseline, Mean (SD)",[2],−0.57 (0.635) mg/dL
same,"Serum Uric Acid, Change from Baseline, Median",[2],-0.20 mg/dL
same,"Serum Uric Acid, Observed, Mean (SD)",[2],8.17 (0.058) mg/dL
same,"Serum Uric Acid, Observed, Median",[2],8.20 mg/dL
same,"sUA <6 mg/dL, n (%)","Early Termination Visit, mITT Population, number of subjects (% not given)",0
same,"Serum Uric Acid, Change from Baseline, Mean (SD)",[3],−8.50 (1.556) mg/dL
same,"Serum Uric Acid, Change from Baseline, Median",[3],-8.50 mg/dL
same,"Serum Uric Acid, Observed, Mean (SD)",[3],0.30 (0.000) mg/dL
same,"Serum Uric Acid, Observed, Median",[3],0.30 mg/dL
same,"sUA <6 mg/dL, n (%)",[3],2 (100%)
same,"Serum Uric Acid, Change from Baseline, Mean (SD)",[4],−6.60 (2.848) mg/dL
same,"Serum Uric Acid, Change from Baseline, Median",[4],-7.20 mg/dL
same,"Serum Uric Acid, Observed, Mean (SD)",[4],2.13 (2.438) mg/dL
same,"Serum Uric Acid, Observed, Median",[4],1.20 mg/dL
same,"sUA <6 mg/dL, n (%)",[4],3 (100%)
same,"Serum Uric Acid, Change from Baseline, Mean (SD)",[5],−0.57 (0.635) mg/dL
same,"Serum Uric Acid, Change from Baseline, Median",[5],-0.20 mg/dL
same,"Serum Uric Acid, Observed, Mean (SD)",[5],8.17 (0.058) mg/dL
same,"Serum Uric Acid, Observed, Median",[5],8.20 mg/dL
same,"sUA <6 mg/dL, n (%)",[5],0%
same,"Serum Uric Acid, Change from Baseline, Mean (SD)",[6],−8.10 (0.000) mg/dL
same,"Serum Uric Acid, Change from Baseline, Median",[6],-8.10 mg/dL
same,"Serum Uric Acid, Observed, Mean (SD)",[6],0.30 (0.000) mg/dL
same,"Serum Uric Acid, Observed, Median",[6],0.30 mg/dL
same,"sUA <6 mg/dL, n (%)",[6],2 (100%)
same,"Serum Uric Acid, Change from Baseline, Mean (SD)",[7],−8.43 (0.577) mg/dL
same,"Serum Uric Acid, Change from Baseline, Median",[7],-8.10 mg/dL
same,"Serum Uric Acid, Observed, Mean (SD)",[7],0.30 (0.000) mg/dL
same,"Serum Uric Acid, Observed, Median",[7],0.30 mg/dL
same,"sUA <6 mg/dL, n (%)",[7],3 (100%)
same,"Serum Uric Acid, Change from Baseline, Mean (SD)",[8],−5.17 (4.225) mg/dL
same,"Serum Uric Acid, Change from Baseline, Median",[8],-5.70 mg/dL
same,"Serum Uric Acid, Observed, Mean (SD)",[8],3.57 (3.775) mg/dL
same,"Serum Uric Acid, Observed, Median",[8],2.70 mg/dL
same,"sUA <6 mg/dL, n (%)",[8],2 (66.7%)
same,"Serum Uric Acid, Change from Baseline, Mean (SD)",[9],−3.70 (4.744) mg/dL
same,"Serum Uric Acid, Change from Baseline, Median",[9],-1.80 mg/dL
same,"Serum Uric Acid, Observed, Mean (SD)",[9],5.03 (4.177) mg/dL
same,"Serum Uric Acid, Observed, Median",[9],6.60 mg/dL
same,"Serum Uric Acid, Change from Baseline, Mean (SD)",[10],−9.10 (NE) mg/dL
same,"Serum Uric Acid, Change from Baseline, Median",[10],-9.10 mg/dL
same,"Serum Uric Acid, Observed, Mean (SD)",[10],0.30 (NE) mg/dL
same,"Serum Uric Acid, Observed, Median",[10],0.30 mg/dL
same,"sUA <6 mg/dL, n (%)",[10],1 (100%)
same,"Serum Uric Acid, Change from Baseline, Mean (SD)",[11],−0.50 (NE) mg/dL
same,"Serum Uric Acid, Change from Baseline, Median",[11],-0.50 mg/dL
same,"Serum Uric Acid, Observed, Mean (SD)",[11],8.90 (NE) mg/dL
same,"Serum Uric Acid, Observed, Median",[11],8.90 mg/dL
same,"sUA <6 mg/dL, n (%)",[11],0%
same,"Serum Uric Acid, Change from Baseline, Mean (SD)",[12],−1.30 (NE) mg/dL
same,"Serum Uric Acid, Change from Baseline, Median",[12],-1.30 mg/dL
same,"Serum Uric Acid, Observed, Mean (SD)",[12],8.10 (NE) mg/dL
same,"Serum Uric Acid, Observed, Median",[12],8.10 mg/dL
same,"sUA <6 mg/dL, n (%)",[12],0%
same,"Serum Uric Acid, Change from Baseline, Mean (SD)",[13],−7.55 (2.158) mg/dL
same,"Serum Uric Acid, Change from Baseline, Median",[13],-7.50 mg/dL
same,"Serum Uric Acid, Observed, Mean (SD)",[13],0.83 (0.798) mg/dL
